Test results reported in PMC11176561 (Computational and Structural Biotechnology Journal, 2024).

System: ceftazidime-resistant E. coli E24
Test: E. coli-induced mouse bacteremia
[1] = ceftazidime 5 mg/kg i.p., 8 h of drug treatment

CC(C)(O/N=C(\C(=O)N[C@@H]1C(=O)N2C(C(=O)[O-])=C(C[n+]3ccccc3)CS[C@H]12)c1csc(N)n1)C(=O)O [Ceftazidime]
loss of mice (mortality) (ceftazidime 5 mg/kg i.p. 2 h after i.p. E. coli E24): 85.7%
bacterial load in the blood [1]: approximately 1 × 10^9 CFU/ml
bacterial load in the lung, liver, spleen, and kidney tissues [1]: approximately 1 × 10^9 CFU/g
